Test results as given in paper PMC4795541, “A Rapid and Quantitative Flow Cytometry Method for the Analysis of Membrane Disruptive Antimicrobial Activity” (PLoS ONE, 2016).
Converted amounts (≈) assume the structure as drawn. Where two headings read alike, the source gives them in different places. Marks after values point to notes of the source that are not given here. Where no end group is shown, it is not given here.

What was measured:
[1] = test system: F. nucleatum ATCC 25586
Description: (§1) The bacterial strains; Fusobacterium nucleatum ATCC 25586, Streptococcus mutans Ingbritt, Staphylococcus aureus (MSSA) ATCC 29213; Staphylococcus aureus (MRSA) ATCC 43300; Enterococcus faecalis ATCC 29212; Enterobacter aerogenes ATCC 13048; Pseudomonas aeruginosa strain PAO1-LAC, ATCC 47085; Klebsiella pneumoniae ATCC 13883; Acinetobacter baumannii strain 2208, ATCC 19606; Escherichia coli ATCC 25922 lyophilised or glycerol stocks were obtained from the culture collection of the Oral Health Cooperative Research Centre, The Melbourne Dental School, University of Melbourne, Australia. These strains were selected for this study as they are widely used in antimicrobial studies and are considered to be important pathogens and major targets for antibiotic resistant studies. Bacteria were grown aerobically and maintained by passage at ambient temperature (E. coli, K. pneumoniae, A. baumannii and S. aureus strains) or at 37°C (P. aeruginosa, E. faecalis and E. aerogenes) on horse blood agar (10% v/v defibrinated horse blood, 4.4% w/v Oxoid Blood Agar Base No. 2). S. mutans and F. nucleatum were grown anaerobically (MK3 anaerobic workstation, Don Whitley Scientific Limited, England) and maintained by passage at 37°C on Todd Hewitt agar (3.6% w/v Oxoid Todd-Hewitt Broth, 1.5% w/v sucrose, 1.5% w/v BactoTM Agar, 0.8% w/v Oxoid Yeast Extract) or horse blood agar, respectively. For the antimicrobial peptide assays a 20 mL starter culture was produced by taking single colonies from blood or Todd Hewitt agar plates, respectively, to inoculate either: Luria Broth (LB; 1% w/v BactoTM Tryptone, 1% w/v NaCl, 0.5% w/v Oxoid Yeast Extract, pH 7.5, Thermo Scientific Pty, Ltd, Sydney, Australia) for bacteria; E. coli, K. pneumoniae, P. aeruginosa, A. baumannii, E. faecalis, E. aerogenes and S. aureus which were grown aerobically at 37°C, or Todd Hewitt broth (3.6% w/v Oxoid Todd-Hewitt Broth, 1.5% w/v sucrose, 0.8% w/v Oxoid Yeast 9 Extract) for S. mutans, or Brain Heart Infusion broth (BHI; 3.7% w/v Oxoid BHI, 0.05% w/v L-cysteine) for F. nucleatum which were both grown anaerobically at 37°C. After overnight incubation, 0.5–2.0 mL of the starter culture was used to inoculate the appropriate fresh broth (200 mL) and growth monitored at 650 nm using a spectrophotometer (model 275E; Perkin-Elmer, Sydney, Australia) with culture purity checked by microscopic examination and culture. Bacteria were harvested during late exponential growth phase and viability and bacteria/mL determined using a BacLight viability kit (Invitrogen, Sydney, Australia) and a Quanta SC-MPL flow cytometer (Beckman coulter Pty, Ltd, Sydney, Australia).
(§2) Antibacterial assays were undertaken to determinate the minimum inhibitory concentration (MIC), minimum bactericidal concentration (MBC) and minimum membrane disruptive concentration (MDC) of each of the antimicrobial peptides (AMP) and AMP analogues (S1 Table). For each bacterim a stock solution (2.5 × 10^6 cells/mL) in the respective media was made and an aliquot incubated with AMPs within 15 minutes from viable cell count and stock preparation. All AMPs were dissolved in DMSO and a 500 μM stock solution prepared by adding the respective media and serial dilutions (250–0.244 μM) of the AMP in media (100 μL/well) made just prior addition of bacteria. […] One hundred microliter aliquots of the bacterial stock solution (2.5 × 10^5 cells/well) were added to the AMP serial dilutions and incubated at 37°C for 90 min. Assay preparation and incubations were conducted in aerobic or anaerobic conditions dependent on the bacteria. Bacteria were also incubated in the absence of AMP to serve as a growth control for the assay. After the 90 minute incubation period the antimicrobial activity (MIC, MBC and MDC) was determined as follows;
(§3) For determination of MBC, the CLSI protocol was followed, with the modifications being that due to the rapid action of the AMPs the assay incubation time was shortened from 16–20 hours to 90 minutes.

[2] = test system: S. mutans Ingbritt
Description: as §1, §2, §3

[3] = test system: F. nucleatum ATCC 25586; remark: listed apart in the source
Description: as §1, §2
(§4) For MIC the CLSI broth microdilution assay was followed as we have previously described.

[4] = test system: S. mutans Ingbritt; remark: listed apart in the source
Description: as §1, §2, §4

[5] = test system: sheep red blood cells; test: Hemolysis assay; assay type: cell-based
Procedure: Fresh sheep red blood cells in Alsever’s solution (RBCs, Equicell, Victoria, Australia) were diluted 1 in 20 in PBS (pH 7.4), pelleted by centrifugation, and washed three times in PBS (1000 g, 10 min). The RBCs were counted using a cell counter (Coulter Particle Counter Z series, Beckman Coulter) and diluted to a final concentration of 2 × 10^7 cells/mL. […] Following incubation, the RBCs were pelleted centrifuged (1000 g, 10 min) and the amount of haemoglobin in 100 μL aliquots determined by measuring the absorbance at 405 nm using a microplate reader (PerkinElmer 1420 Multilabel Counter VICTOR3). Positive and negative controls for hemolysis were taken as RBC lysed with 0.5% Triton X-100 (1:1 v/v) and RBC suspension in PBS, respectively. The percentage of hemolysis was calculated using the following formula: % Hemolysis = [(A405 test sample—A405 negative control) / (A405 positive control—A405 negative control)] × 100
The percentage hemolysis was plotted against peptide concentration and linear regression analysis was used to determine the hemolytic concentration needed to lyse 50% (HC50) of RBCs.

[6] = test system: HEK-293 (ATCC CRL-1573) cells; test: Inhibition of cell proliferation assay (MTS); assay type: cell-based
Procedure: After 28 h, 20 μL of 3-(4,5-dimethylthiazol-2-yl)-5-(3-carboxymethoxyphenyl)-2-(4-sulfophenyl)-2H-tetrazolium (MTS) solution (CellTiter 96 AQueous Non-Radioactive Cell Proliferation Assay kit, Promega) were added to each well and the plates were incubated for a further 1–2 h at 37°C, 5% CO2 incubator. Cell proliferation was determined by measuring absorbance at 490 nm using a microplate reader (PerkinElmer 1420 Multilabel Counter VICTOR3). Positive and negative controls for inhibition were taken as HEK-293 cells incubated with mytomycin C (5 μg/mL, Sigma Pty Ltd) and HEK-293 cells incubated in media alone, respectively. The percentage of inhibition was calculated using the following formula: % Inhibition = [(A490 test sample—A490 negative control) / (A490 positive control—A490 negative control)] × 100
The percentage of inhibition was plotted against peptide concentration and linear regression analysis was used to determine the AMP concentration needed to inhibit 50% (IC50) of the HEK-293 cells.

Molecule | MBC ([1]; F. nucleatum ATCC 25586, 90 min peptide/bacteria incubation, CFU on agar, ≥ 99.9% reduction, average of 3 assays ± SD) [µM] | MBC ([2]; S. mutans Ingbritt, 90 min peptide/bacteria incubation, CFU on agar, ≥ 99.9% reduction, average of 3 assays ± SD) [µM] | MIC ([3]; F. nucleatum ATCC 25586, 2.5 × 10^5 cells/well, 90 min peptide/bacteria incubation at 37°C, then growth at OD650, average of 3 assays ± SD) [µM] | average MIC/MBC value ([3]; F. nucleatum, average of MIC and MBC) [µM] | MIC ([4]; S. mutans Ingbritt, 90 min peptide/bacteria incubation at 37°C, then growth at OD650, average of 3 assays ± SD) [µM] | MBC ([1]; ATCC 25586) | MBC ([2]; Ingbritt) | MIC ([3]; ATCC 25586, 24 h) | MIC ([4]; Ingbritt, 24 h) | Therapeutic Index (hemolysis) ([5]; HC50/MDC50 (F. nucleatum), given as x : 1) | Hemolysis (HC50) ([5]; pH 7.4) [µM] | IC50 ([6]; HEK-293 cells 5×10^3, EMEM + 10% FBS, 28 h, MTS, A490, linear regression, maximum peptide concentration = 1000 µM) [µM] | Therapeutic Index (proliferation) ([6]; IC50/MDC50 (F. nucleatum), given as x : 1)
CC[C@H](C)[C@H](NC(=O)CN)C(=O)NCC(=O)N[C@@H](C)C(=O)N[C@H](C(=O)N[C@@H](CC(C)C)C(=O)N[C@@H](CCCCN)C(=O)N[C@H](C(=O)N[C@@H](CC(C)C)C(=O)N[C@H](C(=O)N[C@H](C(=O)NCC(=O)N[C@@H](CC(C)C)C(=O)N1CCC[C@H]1C(=O)N[C@@H](C)C(=O)N[C@@H](CC(C)C)C(=O)N[C@H](C(=O)N[C@@H](CO)C(=O)N[C@@H](Cc1c[nH]c2ccccc12)C(=O)N[C@H](C(=O)N[C@@H](CCCCN)C(=O)N[C@@H](CCCNC(=N)N)C(=O)N[C@@H](CCCCN)C(=O)N[C@@H](CCCNC(=N)N)C(=O)N[C@@H](CCC(N)=O)C(=O)N[C@@H](CCC(N)=O)C(N)=O)[C@@H](C)CC)[C@@H](C)CC)[C@@H](C)O)[C@@H](C)O)C(C)C)C(C)C [Melittin] | 3.8 ± 0.4 (≈ 10.8 µg/mL) | 4.2 ± 2.4 (≈ 12 µg/mL) | 4.4 ± 0.3 (≈ 12.5 µg/mL) | 4.0 | 6.1 ± 0.9 (≈ 17.4 µg/mL) | – | – | – | – | – | – | – | –
GIGKFLHAAKKFAKAFVAEIMNS-NH2 [Ala-Magainin] | – | – | – | – | – | 0.4±0.1^c μM | 3.4±0.5^c μM | 0.6±0.1^c μM | 7.1±0.7^c μM | 24 : 1 | 9.6 ± 0.9 | 5.6 ± 1.4 | 14.0 : 1
